According to US4157347A, “N-cyano isothioureas” (Bristol-Myers Company, priority 1978, dated 1979):

Key:
[1] = target: T1, histamine H2-receptors (Cavia porcellus, UniProt P47747); conditions: literature, in words; cited from earlier work
T1 construct: The spontaneously beating right atrium was dissected free from other tissues; from tissue; host or cells: isolated spontaneously beating right atrium of male Hartley guinea pigs

[2] = test system: gastric secretion; conditions: in words, cited from earlier work
[3] = in words; cited from earlier work
[4] = clinical, in words; cited from earlier work
[5] = test system: H2 receptors; conditions: in words; cited from earlier work
[6] = target: T1, histamine H2-receptors; assay: Histamine H2-receptor antagonism, isolated guinea pig right atria assay; assay type: cell-based; conditions: cumulative histamine 1×10^-7 to 3×10^-5 M
Method: Subsequent investigations by Hughes and Coret, Proc. Soc. […] Black et al., Agents and Actions, 3, 133 (1973) and Brimblecombe et al., Fed. […] The present comparative studies were carried out using a modification of the procedure reported by Reinhardt et al., Agents and Actions, 4, 217 (1974).
Male Hartley strain guinea pigs (350-450 gm.) were sacrificed by a blow on the head. The heart was excised and placed in a Petri dish of oxygenated (95% O2, 5% CO2) modified Krebs solution (g./liter: NaCl 6.6, KCl 0.35, MgSO4.7 H2 O 0.295, KH2 PO4 0.162, CaCl2 0.238, NaHCO3 2.1 and dextrose 2.09). The spontaneously beating right atrium was dissected free from other tissues and a silk thread (4-0) attached to each end. The atrium was suspended in a 20 ml. muscle chamber containing oxygenated modified Krebs solution maintained at 32° C. Atrial contractions were recorded isometrically by means of a Grass FT 0.03 force displacement transducer and recordings of contractile force and rate were made with a Beckman RP Dynograph.
A resting tension of 1 g. was applied to the atrium and it was allowed to equilibrate for 1 hour.
Concentration-response curve displacement factors were calculated as follows: [formula] The factor obtained for BL-5641 was then expressed as a ratio of the factor obtained for cimetidine. [formula]

T1 sequence (P47747 whole entry): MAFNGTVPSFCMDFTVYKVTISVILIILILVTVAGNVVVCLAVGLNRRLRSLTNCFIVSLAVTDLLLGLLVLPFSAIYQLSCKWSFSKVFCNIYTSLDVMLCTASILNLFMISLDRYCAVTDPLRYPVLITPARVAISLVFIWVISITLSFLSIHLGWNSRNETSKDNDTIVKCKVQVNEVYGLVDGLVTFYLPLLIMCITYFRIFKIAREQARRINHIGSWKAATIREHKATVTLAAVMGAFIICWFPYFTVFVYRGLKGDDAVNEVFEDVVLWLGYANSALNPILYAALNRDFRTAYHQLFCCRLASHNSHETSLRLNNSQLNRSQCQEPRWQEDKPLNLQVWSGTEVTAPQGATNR

Row | SMILES | effect on histamine H2-receptors / contractile rate of guinea pig right atria [1] | inhibition of gastric secretion ([2]; animals and man) | clinical effectiveness as H2 receptor antagonist [2] | oral absorption [3] | oral activity in man [3] | toxicity (agranulocytosis) [4] | H2 antagonist potency/effectiveness [5] | concentration of maximal response (histamine-induced increase in atrial rate) [6] [µM]
1 | CNC(=S)NCCCCc1cnc[nH]1 [Burimamide] | a competitive antagonist of these receptors | inhibits gastric secretion in animals and man | first clinically effective H2 receptor antagonist | oral absorption is poor | – | – | – | –
2 | CNC(=S)NCCSCc1[nH]cnc1C [Metiamide] | – | – | – | – | orally active in man | toxicity (agranulocytosis) | more potent than burimamide | –
3 | NCCc1c[nH]cn1 [Histamine] | concentration-related increases in the contractile rate | – | – | – | – | – | – | 30
